Data taken from article PMC3904085 (Frontiers in Neuroscience, 2014).
Entries after “also recorded” stand apart in the source; their conditions may differ. Read-outs that look alike come from different tables or passages of the source.

What was measured:
[1] = Rat exposure (plasma and brain pharmacokinetics); format: in vivo, Sprague–Dawley rats; details: for concentration at 2 h / Cmax / Tmax / AUC(0-t): male, Sprague-Dawley; for AUC(0-t): read-out: AUC0–6 h
Experimental: Two cohorts of rats were used in each study, with samples taken from one cohort at 0.5, 1, and 2 h post-dose, and samples taken from the second cohort at 1.5, 4, and 6 h post-dose. The first cohort of animals was sacrificed at 2 h post-dose, and the second at 6 h post-dose to allow for collection of brain samples.

[2] = Plasma and brain binding by equilibrium dialysis (unbound fraction); format: in vitro ADME; details: rat, equilibrium dialysis at 1 μM
[3] = tested on: Sprague–Dawley rats; experiment: DRL 72-s schedule of reinforcement in rats; format: in vivo, rat; details: for Lever Presses Mean / Reinforcers Mean: HSD rats DRL-72-s, raw data
Text: Each chamber was enclosed in a melamine sound-attenuating cubicle. A white noise generator provided masking noise. The interior of each chamber consisted of three levers mounted on one wall with a house light mounted on the opposite wall. The house light was turned on at initiation of each test session and was turned off at the termination of each session. A water access port was situated next to the lever in the middle of the wall, wherein a reinforced response caused a clicker apparatus to sound paired with a dipper (0.02-ml cup) to be lifted from a water trough to an opening in the floor of the access port for 4 s.
Rats were initially trained under an alternative fixed ratio 1 water reinforcement schedule with a fixed 1-min time schedule for automatic reinforcement. Thus, each response was reinforced, with water also provided every minute in the absence of a response. […] Following acquisition of lever-pressing behavior, rats were trained daily on DRL 18-s sessions for ~2 weeks, following which they were advanced to DRL 72-s sessions. Responding on these sessions became stable after ~8 weeks. Experimental test sessions lasted for 1 h and were conducted 5 days/week during light hours.
(§1) Drugs were administered to the animals once or twice weekly with at least 1 week between subsequent drugs to minimize possible carryover effects. Drug treatments were administered on Tuesdays and Fridays. No treatments were administered on other test days. Wednesdays were control days. “Control” behavior was calculated as the pooled mean lever presses or reinforcers received during Wednesday sessions across all Wednesdays for the duration of each study. Performance was normalized to percent of control by dividing total responses (or reinforcers) for each drug or vehicle treatment by the mean number of responses (reinforcers) in the respective pooled control condition, multiplied by 100.
(§2) The data analyses were conducted on the raw response and reinforcement data. All behavioral data are expressed as the mean ± s.e.m. normalized to the control condition.

[4] = tested on: C57Bl/6 mice; experiment: DRL 36-s schedule of reinforcement in wild-type mice; format: in vivo, mouse; details: for Lever Presses Mean / Reinforcers Mean: WT mice DRL-36-s, raw data
Text: (§3) The levers in these chambers were mounted on one wall with an adjacent food magazine next to the lever in the middle of the wall. A reinforced response caused a clicker apparatus to activate and the pellet feeder to deposit one 45-mg sucrose pellet (BioServ, Frenchtown, NJ) into the food magazine. The house light, which was mounted on the ceiling, was turned on when the session began, remained on throughout the entire session, and was turned off at the end of the session. Each experimental chamber was enclosed in a melamine sound-attenuating cubicle and equipped with a white noise generator to provide masking noise.
(§4) Each mouse was initially trained under a variable time 60-s operant schedule for 5 days, followed by fixed ratio-1 ratio schedule for 5 days. After the mice had acquired lever-pressing behavior, they were trained during daily DRL 6-s sessions for ~1 week, then mice progressed through weekly ascending DRL requirements (12, 18, 24, 30 s) before moving to DRL 36-s sessions. […] Experimental sessions lasted for 45 min and were conducted 5 days/week during light hours.
as §1, §2

[5] = tested on: mice lacking OX1 receptors; experiment: DRL 36-s schedule of reinforcement in OX1 KO mice; format: in vivo, mouse; details: for Lever Presses Mean / Reinforcers Mean: OX1 KO mice DRL-36-s, raw data
Text: (§5) Rats were acclimated to housing conditions for 4 days, followed by sham dosing once daily for 3 days, prior to the experiment. For DRL experiments, male Sprague–Dawley rats weighing between 300 and 350 g at the beginning of the behavioral experiments (Holtzman, Madison, WI) were housed in pairs. For mouse DRL studies, male C57Bl/6 mice (Taconic Farms, Hudson, NY) or mice lacking either OX1 or OX2 receptors, around 8 weeks of age, were obtained from private breeding colonies at Taconic Farms (Hudson, NY). OX1 and OX2 receptor knockout mice were generated using in vitro fertilization of embryos in C57Bl/6 female mice with sperm harvested from male mice obtained from the University of Texas Southwestern Medical Center (Dallas, TX), and backcrossed for at least 10 generations. Mice and rats were housed in separate colony rooms, which were maintained at 22°C and 60% relative humidity. For rat DRL experiments, water was available for a 20-min period following the daily behavioral session. Based on recommendations from the animal care and use committee, the mouse DRL assay was developed using food deprivation rather than water deprivation. […] All experiments were conducted during the light cycle and in compliance with the Guide for the Care and Use of Laboratory Animals under protocols approved by a local animal care and use committee.
as §3, §4, §1, §2

[6] = tested on: mice lacking OX2 receptors; experiment: DRL 36-s schedule of reinforcement in OX2 KO mice; format: in vivo, mouse; details: for Lever Presses Mean / Reinforcers Mean: OX2 KO mice DRL-36-s, raw data
Text: as §5, §3, §4, §1, §2

[7] = design: method as in earlier work; details: ref Fitch et al., unpublished results; Anderson et al., under review; cited from earlier work
[8] = tested on: c-Fos protein in rat medial prefrontal cortex; experiment: Restraint-stress-induced c-Fos activation (ELISA); details: 30 mg/kg
Experimental: Thirty min later, rats were restrained in a rigid plastic flat-bottom restraint tube (Braintree Scientific, Inc.; Braintree, MA, USA) for 20 min. After the 20 min stress period, rats were moved to a new cage and housed individually. Rats were sacrificed 2 h after stress onset. […] Immediately after sacrifice, brains were removed, the medial prefrontal cortex (mPFC), a brain area implicated in the pathophysiology of depression, was dissected from both hemispheres and frozen in 1.5 ml centrifuge tubes in dry ice, and stored at −80°C for later analysis.
Frozen mPFC tissues were removed from the −80°C freezer and placed on ice. Tissue was homogenized with a dounce homogenizer. The nuclear extract was prepared from the homogenized samples as per manufacturer's instructions using a CHEMICON ®Nuclear Extraction Kit (Millipore; Billerica, MA, USA). Protein concentrations were determined in the nuclear extracts using the Pierce BCA Protein Assay kit (Pierce Biotechnology, Inc., Rockford, IL, USA). Nuclear fractions were then assayed for Fos protein levels using the Pierce c-Fos Transcription Factor Kit (Pierce Biotechnology, Inc., Rockford, IL, USA), according to the manufacturer's instructions. […] Data were analyzed and plotted using GraphPad Prism (GraphPad Software, Inc.; La Jolla, CA, USA).

[9] = 30 mg/kg PO, two hours post treatment, Ctotal × Fu
[10] = mice lacking OX1 receptors, DRL-36-s, 20 mg/kg

Cu (unbound concentration) brain [1, 9]: 0.67 nM
Cu (unbound concentration) plasma [1, 9]: 3.52 nM
concentration at 2 h ([1]; brain, 30 mg/kg IP, two hours post treatment, read-out: Brain concentration): 77.2 ng/g
concentration at 2 h ([1]; brain, 30 mg/kg PO, two hours post treatment, read-out: Brain concentration): 33.5 ng/g
Cmax ([1]; plasma, 30 mg/kg IP): 1170 ng/mL
Tmax ([1]; plasma, 30 mg/kg IP): 30 min
AUC(0-t) ([1]; plasma, 30 mg/kg IP): 1300 ng·h/mL
concentration at 2 h ([1]; plasma, 30 mg/kg IP, two hours post treatment, read-out: Plasma concentration): 149 ng/mL
Cmax ([1]; plasma, 30 mg/kg PO): 196 ng/mL
Tmax ([1]; plasma, 30 mg/kg PO): 30 min
AUC(0-t) ([1]; plasma, 30 mg/kg PO): 269 ng·h/mL
concentration at 2 h ([1]; plasma, 30 mg/kg PO, two hours post treatment, read-out: Plasma concentration): 45.8 ng/mL
fraction unbound at 1 μM ([2]; brain, read-out: Fu (fraction unbound) brain): 0.0089
fraction unbound at 1 μM ([2]; plasma, read-out: Fu (fraction unbound) plasma): 0.0341
SMILES: Cl.O=S(=O)(c1ccc(F)cc1)N(Cc1ncc[nH]1)c1ccccc1-c1ccccc1 [LSN2424100, N-((1H-imidazol-2-yl)methyl)-N-([1,1′-biphenyl]-2-yl)-4-fluorobenzenesulfonamide hydrochloride]
Lever Presses Mean ([3]; dose 3 mg/kg): 67.86
Reinforcers Mean ([3]; dose 3 mg/kg): 10.71
Lever Presses Mean ([3]; dose 10 mg/kg): 48.14
Reinforcers Mean ([3]; dose 10 mg/kg): 12.14
Lever Presses Mean ([3]; dose 30 mg/kg IP): 56.00
Reinforcers Mean ([3]; dose 30 mg/kg IP): 15.43
Total lever presses emitted ([3]; rats DRL-72-s, 10 mg/kg, normalized to control days): 60 % of control
Lever presses made ([3]; rats DRL-72-s, 30 mg/kg IP): 70 % of control
Reinforcers received ([3]; rats DRL-72-s, 30 mg/kg IP): 170 % of control
Lever presses emitted ([4]; C57Bl/6 mice DRL-36-s, 10 mg/kg IP): 50 % of control
Decrease in lever presses emitted, in words ([4]; C57Bl/6 mice DRL-36-s, 20 mg/kg): did not reach statistical significance
Reinforcers received (maximum increase) ([4]; C57Bl/6 mice DRL-36-s, doses 3–20 mg/kg IP, did not reach statistical significance): up to 225 % of control
Lever Presses Mean ([4]; dose 3 mg/kg): 153.38
Reinforcers Mean ([4]; dose 3 mg/kg): 15.00
Lever Presses Mean ([4]; dose 10 mg/kg): 83.88
Reinforcers Mean ([4]; dose 10 mg/kg): 18.75
Lever Presses Mean ([4]; dose 20 mg/kg): 105.43
Reinforcers Mean ([4]; dose 20 mg/kg): 28.00
Lever Presses Mean ([5]; dose 3 mg/kg): 164.38
Reinforcers Mean ([5]; dose 3 mg/kg): 23.13
Lever Presses Mean ([5]; dose 10 mg/kg): 174.75
Reinforcers Mean ([5]; dose 10 mg/kg): 20.00
Lever Presses Mean ([5]; dose 20 mg/kg): 105.25
Reinforcers Mean ([5]; dose 20 mg/kg): 31.75
Lever presses emitted [5, 10]: 50 % of control
Reinforcers received [5, 10]: 200 % of control
Lever Presses Mean ([6]; dose 10 mg/kg): 171.75
Reinforcers Mean ([6]; dose 10 mg/kg): 18.88
Lever Presses Mean ([6]; dose 20 mg/kg): 160.00
Reinforcers Mean ([6]; dose 20 mg/kg): 23.38
Lever Presses Mean ([6]; dose 40 mg/kg): 158.25
Reinforcers Mean ([6]; dose 40 mg/kg): 26.25
Change in reinforcers received or lever presses emitted, in words ([6]; mice lacking OX2 receptors, doses up to 40 mg/kg): no significant change
Direct effects on food or water intake [7]: no direct effects
Effect on restraint stress-induced increase in c-fos expression in prefrontal cortex ([8]; 30 mg/kg IP 30 min before 20 min restraint): attenuated; also recorded: blocked
c-fos protein levels in prefrontal cortex without stress (home cage) vs vehicle ([8]; 30 mg/kg IP, no restraint stress): no effect
